From patent US6057450A, “Derivatives of pyroglutaminic acid preparation process and applications” (Totiam, S.L., priority 1994, dated 2000)

B1: rhG-CSF: recombinant human Granulocyte Colony Stimulating Factor (protein, UniProt P09919 31-207, looked up)
Granulocyte …: TPLGPASSLPQSFLLKCLEQVRKIQGDGAALQEKLVSECATYKLCHPEELVLLGHSLGIPWAPLSSCPSQALQLAGCLSQLHSGLFLYQGLLQALEGISPELGPTLDTLQLDVADFATTIWQQMEELGMAPALQPTQGAMPAFASAFQRRAGGVLVASHLQSFLEVSYRVLRHLAQP

Columns and labels:
[1] = test system: human lymphocytes; test: in vitro non-specific lymphoproliferative response (RLP-I) to PHA, human lymphocyte cultures; assay type: cell-based; conditions: for RLP-I B < A, number of witness models / RLP-I B < A, percentage of witness models / RLP-I B > A, number of witness models / RLP-I B > A, percentage of witness models: Table V, PHA + BRM-BLAS (B) versus PHA (A); for number of cases with RLP-I B > A in 67% of the witness models / percentage of cases with RLP-I B > A in 33-50% of the witness models / percentage of cases with RLP-I B > A in 67% of the witness models / number of cases with RLP-I B > A in 33-50% of the witness models / number of cases with RLP-I B > A in 100% of the witness models / percentage of cases with RLP-I B > A in 100% of the witness models: Table VI, intragroup individual analysis
Description: The "in vitro" lymphocyte response has been assessed in samples of circulating and peripheral venous blood from asymptomatic blood donor adults of both sexes. In general, the lymphocyte cultures include in each case six experimental models called witnesses, and incorporate progressive doses between 0.25-6.0 units (20-500 ng) of the BRM-BLAS compounds and PHA. The RLP-I of each one has been morphologically determined and is expressed in absolute values of lymphoblasts/10,000.
Systematically, in all the cases it has been tabulated the RLP-I to the PHA, basal, of the PHA models; to the PHA+BRM-BLAS, of the "witness" models and the maximum individual response of the witness models (RMC), in each case.

[2] = test system: Swiss mice; test: single-dose intraperitoneal toxicity in mice; conditions: i.p. single dose; 236 (Cl) 800 mcg/Kg, 278 (Ac) 4.2 mg/Kg, 320 (Ac) 4.8 mg/Kg, respectively
[3] = test system: circulating peripheral blood lymphocytes; test: in vivo lymphocyte kinetics / response in asymptomatic rabbits; set-up: species or system New Zealand's albino, giant rabbits
Source text: (§1) The pharmacodynamic study to assess the leuko-lymphocyte kinetics has been carried out in New Zealand's albino, giant, female, adult, asymptomatic (healthy) rabbits. The blood samples with EDTA (ethylene-diamino-tetraAcetic acid), non-coagulable, for the periodical weekly controls, have been obtained by aseptic puncture from the marginal vein of the outer ear. The count and the differential cytologic survey of the white series has been routinely performed in a "Coulter" (Coulter Cientifica, S.A., STKs model) differential analyzer, within the two hours following the extraction.
Hereinafter, there is a summary of the most significant results of the preclinical protocols which include different experimental conditions, different BRM-BLAS products and doses which vary in vary of their concentration of the product, frequency and number. […]
This study comprises three concatenated experimental situations. The first one is focused on the vicissitudes of the leuko-lymphocyte kinetics occurred during a pause, "first" moment, that takes place months after several doses, mainly of BRM-BLAS 236 (Cl) compounds and includes 30 individual assessments (6 of the group) days 0 to 39. The second "second" moment, is centered on the successive changes occurred after the administration on the 39th day of an intravenous dose of 8 u/Kg (0.6 mcg/Kg) of the BRM-BLAS 278 (Ac) compounds and includes a total of 25 individual assessments (5 of the group), days 43rd to 68th. The third one, moments "third" to "seventh", analyzes the changes induced after the intravenous administration on the 68th day of 22 u/Kg (1.8 mcg/Kg) of BRM-BLAS 320 (Ac) compounds and includes […] (6 of the group×5 times), days 75th to 287th of the study. The assessment prior to the last dose, the lymphocyte average of which is the lowest of the group during the study, has been selected as the common baseline (100%) for reference of the comparative analysis between the assessments.

[4] = test system: circulating peripheral blood leukocytes; test: in vivo leukocyte kinetics / response in asymptomatic rabbits; set-up: species or system New Zealand's albino, giant rabbits; conditions: s.c. 30 u/Kg
Source text: as §1
Hereinafter, there is a summary of the most significant results of the preclinical protocols which include different experimental conditions, different BRM-BLAS products and doses which vary in vary of their concentration of the product, frequency and number.
The leuko-lymphocyte mean values of the group run parallelly during the study, in general above the respective basal values before the treatment to which they return in the last two assessments. They reach the higher ones 7, 16 and 20 days after the first, second and third dose, FIG. 12, FIG. 13 and Table VIII (assessments: 3, 8 and 13).
A total number of 225 individual assessments and 45 of the group assessments have been performed, grouped in four evolutive periods moments. The "first" one includes the 40 individual assessments (8 of the group) after the two first doses, days 0 to 43rd; the "second", the 85 (17 of the group) after the third, fourth and fifth doses, days 46th to 147th; the "third", the first 50 (10 of the group) after the sixth, days 153rd to 213th, and the "fourth", the last 50 (10 of the group), days 220th to 282nd, respectively. The assessment of the group prior to the third dose (43rd day), the lymphocyte mean of which has been the lowest during the survey, has been taken as the natural reference baseline for the comparative analysis of punctual and grouped data.
This trail is subsequent to the protocol previously described and corresponds to the "fifth" moment of the global study, FIG. 14 and FIG. 15.
After the subcutaneous administration of a dose of 30 u/Kg (2.1 mcg/Kg) of the BRM-BLAS 278 (Cl) compounds 137 days after the sixth dose of the BRM-BLAS 320 (Ac) compounds, in the presence of high figures of the lymphocyte mean of the group, at the "fourth" moment, such figures were specifically exceeded by the 4th and 5th punctual weekly assessments of the "fifth" moment, 24th (184%) and 31st (180%) days, respectively, FIG. 14. Globally, 28% of the assessment exceed basal values by one or two standard deviations; 57% in three, and the difference is statistically in all of them. The resulting mean of the data gathered for the "fifth" moment with a 158% of the basal values, exceed those of the four previous moments, and the difference is statistically significant compared with those of the "first", "second" and "third", and exceeds that of the "first" in more than one standard deviation, FIG. 15 and (Table IX). […]

[5] = test system: patients; conditions: cited from earlier work; for effect on circulating granulocytes: cancer patients in the absence of a myelodepression

| Molecule | number of cases with RLP-I B > A in 67% of the witness models [1] | percentage of cases with RLP-I B > A in 33-50% of the witness models [1] | percentage of cases with RLP-I B > A in 67% of the witness models [1] | RLP-I B < A, number of witness models [1] | RLP-I B < A, percentage of witness models [1] | RLP-I B > A, number of witness models [1] | RLP-I B > A, percentage of witness models [1] | number of cases with RLP-I B > A in 33-50% of the witness models [1] | number of cases with RLP-I B > A in 100% of the witness models [1] | percentage of cases with RLP-I B > A in 100% of the witness models [1] | effect on circulating granulocytes [5] | further results |
| --- | --- | --- | --- | --- | --- | --- | --- | --- | --- | --- | --- | --- |
| NC1(C[n+]2ccccc2)CC(C(=O)O)NC1=O (centres unmarked) [BRM-BLAS 236 (Ac), 4-amino-4-(1-pyridiniomethyl) pyroglutamic acid acetate] | 12 Num. | 100% | 82% |  |  |  |  |  |  |  |  | RLP-I B < A, number of witness models ([1]; acetate): 17 Num.; RLP-I B < A, percentage of witness models ([1]; acetate): 19%; RLP-I B > A, number of witness models ([1]; acetate): 73 Num.; RLP-I B > A, percentage of witness models ([1]; acetate): 81%; number of cases with RLP-I B > A in 33-50% of the witness models ([1]; acetate): 15 Num.; number of cases with RLP-I B > A in 100% of the witness models ([1]; acetate): 6 Num.; percentage of cases with RLP-I B > A in 100% of the witness models ([1]; acetate): 40% |
| CC(=O)N1C(=O)C(N)(C[n+]2ccccc2)CC1C(=O)O (centres unmarked) [BRM-BLAS 278 (Ac), 1-acetyl-4-amino-4-(1-pyridiniomethyl) pyroglutamic acid acetate] | 6 Num. | 100% | 67% | 14 Num. | 26% | 40 Num. | 74% | 9 Num. | 3 Num. | 33% |  | tolerance / toxicity, single dose [2]: perfectly tolerated without evidences of toxicity; lymphocyte group mean after low dose ([3]; single i.v. low dose 8 u/Kg (0.6 mcg/Kg), fifth assessment): the group mean in the fifth assessment appears in the basal line of the histogram |
| CC(=O)N1C(=O)C(N)(C[n+]2ccccc2)CC1C(=O)O (centres unmarked) [BRM-BLAS 278 (Cl), 1-acetyl-4-ammonium-4-(1-pyridiniomethyl) pyroglutamic acid dichloride] | 13 Num. | 100% | 81% | 16 Num. | 17% | 77 Num. | 83% | 16 Num. | 6 Num. | 37% |  | animals with leukocyte mean at "fifth" exceeding "first" moment by more than two standard deviations [4]: 40%; assessments with leukocyte mean exceeding basal by one standard deviation ([4]; "fifth" moment): 57%; assessments with statistically significant leukocyte difference ([4]; "fifth" moment): 29%; animals with lymphocyte mean "fifth" versus "first" moment higher than three standard deviations ([3]; s.c. 30 u/Kg): 80%; animals with lymphocyte mean "fifth" versus "first" moment higher than two standard deviations ([3]; s.c. 30 u/Kg): 20%; grouped lymphocyte mean versus basal, "fifth" moment ([3]; s.c. 30 u/Kg, "fifth" moment): 158%; lymphocyte mean versus basal, 24th day ([3]; s.c. dose 30 u/Kg (2.1 mcg/Kg) 137 days after BRM-BLAS 320 (Ac), 24th day, "fifth" moment): 184%; lymphocyte mean versus basal, 31st day ([3]; s.c. dose 30 u/Kg (2.1 mcg/Kg) 137 days after BRM-BLAS 320 (Ac), 31st day, "fifth" moment): 180% |
| CC(=O)NC1(C[n+]2ccccc2)CC(C(=O)O)N(C(C)=O)C1=O (centres unmarked) [BRM-BLAS 320 (Cl), 1-acetyl-4-acetylamino-4-(1-pyridiniomethyl) pyroglutamic acid chloride] | 11 Num. | 100% | 69% | 29 Num. | 30% | 67 Num. | 70% | 16 Num. | 2 Num. | 13% |  |  |
| rhMG-CSF: recombinant human Macrophage Granulocyte Colony Stimulating Factor |  |  |  |  |  |  |  |  |  |  | neutrophiles and eosinophile | duration of the neutropenia ([5]; administration prior to chemotherapy): notably reduces the duration of the neutropenia; side effects ([5]; human, in vivo): fever, bone ache, pericarditis, hypotension; deaths from sepsis ([5]; patients who received rhMG-CSF): 2 out of 14; systemic bacterial and viral infections ([5]; severe chronic neutropenia or after transplant of bone marrow): drastically decreases systemic bacterial and viral infections |
| B1 |  |  |  |  |  |  |  |  |  |  | great increase in the number of circulating (peripheral blood) polymorphonuclear neutrophile |  |
